From patent US20140023715A1, “POLYMER CONJUGATES TARGETING CELLS AND METHODS RELATED THERETO” (EMORY UNIVERSITY, priority 2011, published 2014)

Legend:
[1] = test system: MIA PaCa-2 orthotopic pancreatic tumor; assay: Tumor growth inhibition in mice bearing orthotopic MIA PaCa-2 pancreatic cancer; assay type: in vivo; conditions: i.v., gemcitabine-equivalent 2 mg/kg, five times
Protocol: (a) Mean tumor weight (blue bar) of non-, gemcitabine-, Gem-IONP, and ATF-Gem-IONPs treated MIA PaCa-2 bearing mice and individual weight distribution in every group (various symbols). Mice were given by i.v. injection of gemcitabine-equivalent dose of 2 mg/kg five times at 3- or 4-day intervals. At the end of the experimental period, tumor tissues were isolated and weighed. Values represent mean±S.D. for 16 mice. *Statistically significant difference vs. control, p<0.0001. **Statistically significant difference vs. gemcitabine and […] groups, p<0.05. (b) Representative tumor images of each group after dissection.
The tumor growth inhibition effect of ATF-Gem-IONPs was studied using female mice bearing orthotopical pancreatic cancer from an uPAR positive human pancreatic cancer cell line, MIA PaCa-2. NPs were administered five times at twice a week and the dose of ATF-Gem-IONPs was calculated based on gemcitabine-equivalence. Tumors were weighed at the end of the experiment, and average tumor weight was compared between groups (FIG. 4A). All of treated groups inhibited tumor growth compared to non-treated control group. […] Tumor weights agreed well tumor volumes results (FIG. 4B).

MIA PaCa-2 cells = assay: Cell proliferation, Crystal violet assay, 96 h; assay type: cell-based; conditions: Homo sapiens

IC50 (MIA PaCa-2 cells; gemcitabine-equivalent): 498 nM
Structure (SMILES): Nc1ccn([C@@H]2O[C@H](CO)[C@@H](O)C2(F)F)c(=O)n1 [gemcitabine]
tumor growth inhibition compared to non-treated control (tumor weight) [1]: 30% | viability at 1 µM (MIA PaCa-2 cells; gemcitabine equivalent concentration of 1 μM): 39%
